Experimental findings from patent US9579314B2 (priority 2015, dated 2017) are described below.

In one experiment the target is Human M3 receptor (Homo sapiens, UniProt P20309). The following applies: read-out: M3 binding affinity.
A further experiment has as its target Human β2 adrenoceptor (Homo sapiens, UniProt P07550). The following applies: read-out: B2 binding affinity.

Chain of Human β2 adrenoceptor (P07550 whole entry): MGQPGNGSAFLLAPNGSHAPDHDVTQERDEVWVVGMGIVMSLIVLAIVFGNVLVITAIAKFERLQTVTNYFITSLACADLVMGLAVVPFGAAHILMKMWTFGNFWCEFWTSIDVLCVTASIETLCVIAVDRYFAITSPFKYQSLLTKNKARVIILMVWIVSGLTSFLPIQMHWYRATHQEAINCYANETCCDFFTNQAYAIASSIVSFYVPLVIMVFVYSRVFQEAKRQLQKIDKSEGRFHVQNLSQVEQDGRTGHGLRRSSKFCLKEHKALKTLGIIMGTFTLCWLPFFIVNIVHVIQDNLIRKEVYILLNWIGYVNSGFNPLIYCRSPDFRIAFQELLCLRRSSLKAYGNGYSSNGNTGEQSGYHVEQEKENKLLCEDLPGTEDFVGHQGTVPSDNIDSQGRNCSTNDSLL
Chain of Human M3 receptor (P20309 whole entry): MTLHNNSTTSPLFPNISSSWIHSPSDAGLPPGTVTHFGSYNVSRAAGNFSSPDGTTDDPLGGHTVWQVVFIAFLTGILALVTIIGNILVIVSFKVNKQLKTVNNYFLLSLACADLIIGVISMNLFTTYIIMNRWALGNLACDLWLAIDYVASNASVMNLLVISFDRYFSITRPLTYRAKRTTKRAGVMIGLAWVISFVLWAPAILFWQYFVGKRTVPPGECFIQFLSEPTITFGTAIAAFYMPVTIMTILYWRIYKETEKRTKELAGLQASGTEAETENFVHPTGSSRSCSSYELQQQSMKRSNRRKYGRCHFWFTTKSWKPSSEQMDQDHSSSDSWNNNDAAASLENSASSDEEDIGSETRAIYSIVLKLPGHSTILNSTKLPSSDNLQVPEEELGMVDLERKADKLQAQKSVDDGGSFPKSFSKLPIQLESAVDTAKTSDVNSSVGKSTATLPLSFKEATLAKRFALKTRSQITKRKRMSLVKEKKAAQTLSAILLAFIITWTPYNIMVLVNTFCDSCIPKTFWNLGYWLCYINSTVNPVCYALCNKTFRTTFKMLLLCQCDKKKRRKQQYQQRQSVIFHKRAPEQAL

For the molecule `O=C(COc1cccc([C@](O)(C(=O)OCC2CCN(Cc3ccccc3)CC2)c2ccccc2)c1)N[C@H]1CC[C@H](NC(=O)c2ccc(CCNC[C@H](O)c3ccc(O)c4[nH]c(=O)ccc34)cc2)CC1` [Compound 90, (1-benzylpiperidin-4-yl)methyl (S)-2-hydroxy-2-(3-(2-(((1R,4S)-4-(4-(2-(((R)-2-hydroxy-2-(8-hydroxy-2-oxo-1,2-dihydroquinolin-5-yl)ethyl)amino)ethyl)benzamido)cyclohexyl)amino)-2-oxoethoxy)phenyl)-2-phenylacetate], the IC50 at Human M3 receptor and at Human β2 adrenoceptor was 0.3 to 3 nM in each case.
Regarding `O=C(COc1cccc([C@](O)(C(=O)OCC2CCN(Cc3ccccc3)CC2)c2ccccc2)c1)NC1CCN(C(=O)c2ccc(CCNC[C@H](O)c3ccc(O)c4[nH]c(=O)ccc34)cc2)CC1` [Compound 91, (1-benzylpiperidin-4-yl)methyl (S)-2-hydroxy-2-(3-(2-((1-(4-(2-(((R)-2-hydroxy-2-(8-hydroxy-2-oxo-1,2-dihydroquinolin-5-yl)ethyl)amino)ethyl)benzoyl)piperidin-4-yl)amino)-2-oxoethoxy)phenyl)-2-phenylacetate], the IC50 on Human M3 receptor was 0.3 to 3 nM; at Human β2 adrenoceptor, less than 0.3 nM.
The matching figures for `O=C(NC1CCN(C(=O)COc2cccc([C@](O)(C(=O)OCC3CCN(Cc4ccccc4)CC3)c3ccccc3)c2)CC1)c1ccc(CCNC[C@H](O)c2ccc(O)c3[nH]c(=O)ccc23)cc1` [Compound 92, (1-benzylpiperidin-4-yl)methyl (S)-2-hydroxy-2-(3-(2-(4-(4-(2-(((R)-2-hydroxy-2-(8-hydroxy-2-oxo-1,2-dihydroquinolin-5-yl)ethyl)amino)ethyl)benzamido)piperidin-1-yl)-2-oxoethoxy)phenyl)-2-phenylacetate]: less than 0.3 nM and less than 0.3 nM.
The matching figures for `O=C(COc1cccc([C@](O)(C(=O)OCC2CCN(Cc3ccccc3)CC2)c2ccccc2)c1)N1CC2(C1)CN(C(=O)c1ccc(CCNC[C@H](O)c3ccc(O)c4[nH]c(=O)ccc34)cc1)C2` [Compound 93, (1-benzylpiperidin-4-yl)methyl (S)-2-hydroxy-2-(3-(2-(6-(4-(2-(((R)-2-hydroxy-2-(8-hydroxy-2-oxo-1,2-dihydroquinolin-5-yl)ethyl)amino)ethyl)benzoyl)-2,6-diazaspiro[3.3]heptan-2-yl)-2-oxoethoxy)phenyl)-2-phenylacetate]: 0.3 to 3 nM and less than 0.3 nM.
`O=C(COc1cccc([C@](O)(C(=O)OCC2CCN(Cc3ccccc3)CC2)c2ccccc2)c1)N1CC2(CCN(C(=O)c3ccc(CCNC[C@H](O)c4ccc(O)c5[nH]c(=O)ccc45)cc3)CC2)C1` [Compound 94, (1-benzylpiperidin-4-yl)methyl (S)-2-hydroxy-2-(3-(2-(7-(4-(2-(((R)-2-hydroxy-2-(8-hydroxy-2-oxo-1,2-dihydroquinolin-5-yl)ethyl)amino)ethyl)benzoyl)-2,7-diazaspiro[3.5]nonan-2-yl)-2-oxoethoxy)phenyl)-2-phenylacetate]: the IC50 at Human M3 receptor and at Human β2 adrenoceptor was less than 0.3 nM in each case.
In the case of `O=C(COc1cccc([C@](O)(C(=O)OCC2CCN(Cc3ccccc3)CC2)c2ccccc2)c1)N1CCC2(CC1)CCN(C(=O)c1ccc(CCNC[C@H](O)c3ccc(O)c4[nH]c(=O)ccc34)cc1)CC2` [Compound 95, (1-benzylpiperidin-4-yl)methyl (S)-2-hydroxy-2-(3-(2-(9-(4-(2-(((R)-2-hydroxy-2-(8-hydroxy-2-oxo-1,2-dihydroquinolin-5-yl)ethyl)amino)ethyl)benzoyl)-3,9-diazaspiro[5.5]undecan-3-yl)-2-oxoethoxy)phenyl)-2-phenylacetate], the IC50 at Human M3 receptor and on Human β2 adrenoceptor was less than 0.3 nM in each case.
As to `O=C(COc1cccc([C@](O)(C(=O)OCC2CCN(Cc3ccccc3)CC2)c2ccccc2)c1)N1CCC2(CC1)CN(C(=O)c1ccc(CCNC[C@H](O)c3ccc(O)c4[nH]c(=O)ccc34)cc1)C2` [Compound 96, (1-benzylpiperidin-4-yl)methyl (S)-2-hydroxy-2-(3-(2-(2-(4-(2-(((R)-2-hydroxy-2-(8-hydroxy-2-oxo-1,2-dihydroquinolin-5-yl)ethyl)amino)ethyl)benzoyl)-2,7-diazaspiro[3.5]nonan-7-yl)-2-oxoethoxy)phenyl)-2-phenylacetate], the IC50 at Human M3 receptor and at Human β2 adrenoceptor was less than 0.3 nM throughout.
`O=C(COc1cccc([C@](O)(C(=O)OCC2CCN(Cc3ccccc3)CC2)c2ccccc2)c1)NCC1CCN(C(=O)c2ccc(CCNC[C@H](O)c3ccc(O)c4[nH]c(=O)ccc34)cc2)CC1` [Compound 97, (1-benzylpiperidin-4-yl)methyl (S)-2-hydroxy-2-(3-(2-(((1-(4-(2-(((R)-2-hydroxy-2-(8-hydroxy-2-oxo-1,2-dihydroquinolin-5-yl)ethyl)amino)ethyl)benzoyl)piperidin-4-yl)methyl)amino)-2-oxoethoxy)phenyl)-2-phenylacetate]: the IC50 on Human M3 receptor is 0.3 to 3 nM; at Human β2 adrenoceptor, less than 0.3 nM.
In the case of `O=C(COc1cccc([C@](O)(C(=O)OCC2CCN(Cc3ccccc3)CC2)c2ccccc2)c1)N1CC2(CCCN(C(=O)c3ccc(CCNC[C@H](O)c4ccc(O)c5[nH]c(=O)ccc45)cc3)C2)C1` [Compound 98, (1-benzylpiperidin-4-yl)methyl (S)-2-hydroxy-2-(3-(2-(6-(4-(2-(((R)-2-hydroxy-2-(8-hydroxy-2-oxo-1,2-dihydroquinolin-5-yl)ethyl)amino)ethyl)benzoyl)-2,6-diazaspiro[3.5]nonan-2-yl)-2-oxoethoxy)phenyl)-2-phenylacetate], the IC50 on Human M3 receptor and on Human β2 adrenoceptor was 0.3 to 3 nM throughout.
Turning to `O=C(COc1cccc([C@](O)(C(=O)OCC2CCN(Cc3ccccc3)CC2)c2ccccc2)c1)N1CCCC2(CCN(C(=O)c3ccc(CCNC[C@H](O)c4ccc(O)c5[nH]c(=O)ccc45)cc3)CC2)C1` [Compound 99, (1-benzylpiperidin-4-yl)methyl (S)-2-hydroxy-2-(3-(2-(9-(4-(2-(((R)-2-hydroxy-2-(8-hydroxy-2-oxo-1,2-dihydroquinolin-5-yl)ethyl)amino)ethyl)benzoyl)-2,9-diazaspiro[5.5]undecan-2-yl)-2-oxoethoxy)phenyl)-2-phenylacetate], the IC50 on Human M3 receptor and on Human β2 adrenoceptor was 0.3 to 3 nM throughout.
With `O=C(COc1cccc([C@](O)(C(=O)OCC2CCN(Cc3ccccc3)CC2)c2ccccc2)c1)N1CCOC2(CCN(C(=O)c3ccc(CCNC[C@H](O)c4ccc(O)c5[nH]c(=O)ccc45)cc3)CC2)C1` [Compound 100, (1-benzylpiperidin-4-yl)methyl (S)-2-hydroxy-2-(3-(2-(9-(4-(2-(((R)-2-hydroxy-2-(8-hydroxy-2-oxo-1,2-dihydroquinolin-5-yl)ethyl)amino)ethyl)benzoyl)-1-oxa-4,9-diazaspiro[5.5]undecan-4-yl)-2-oxoethoxy)phenyl)-2-phenylacetate], the IC50 is less than 0.3 nM at Human M3 receptor and 0.3 to 3 nM on Human β2 adrenoceptor.
For `O=C(COc1cccc([C@](O)(C(=O)OCC2CCN(Cc3ccccc3)CC2)c2ccccc2)c1)NC1CN(C(=O)c2ccc(CCNC[C@H](O)c3ccc(O)c4[nH]c(=O)ccc34)cc2)C1` [Compound 101, (1-benzylpiperidin-4-yl)methyl (S)-2-hydroxy-2-(3-(2-((1-(4-(2-(((R)-2-hydroxy-2-(8-hydroxy-2-oxo-1,2-dihydroquinolin-5-yl)ethyl)amino)ethyl)benzoyl)azetidin-3-yl)amino)-2-oxoethoxy)phenyl)-2-phenylacetate], in that order: less than 0.3 nM and less than 0.3 nM.
